Results reported in PubChem BioAssay AID449764 (Southern Research Specialized Biocontainment Screening …, 2010).

System: Mycobacterium tuberculosis H37Rv growth inhibition, no glycerol
Experiment: Mycobacterium tuberculosis H37Rv growth inhibition, no glycerol, confirmatory dose response (AID 449764);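 further: growth read after 7 days of incubation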
Conditions: for IC90: measured here: IC90 growth inhibition

SMILES	IC50 [µM]	IC90 [µM]
CC(=O)c1sc(NC(=O)c2cc(=O)c3ccccc3o2)nc1C	18.4	> 100
COc1ccc(-n2nc3c(c2NC(=O)CCl)CSC3)cc1	6.92	12.5
Cc1cc(C)c2oc(-c3ccc(C)c(NC(=S)NC(=O)/C=C/c4ccco4)c3)nc2c1	77.5	> 100
Oc1ccc2ccccc2c1N=Nc1nccs1	1.96	3.06
COc1ccccc1N(C)S(=O)(=O)c1ccc(C(=O)Nc2ccc3nc(C)sc3c2)cc1	51.1	99.8
CCCC1CC(C)(c2csc(Nc3ccc(OCC)cc3)n2)OC1=O (configuration not stated)	35.3	44.9
Oc1ccccc1/C=N/Nc1ccnc(SCc2ccccc2)n1	2.69	2.95
CC1=NN(c2ccccc2)C(=O)/C1=C\c1c(C)[nH]n(-c2ccccc2)c1=O	–	> 100
COc1ccc(/C=N/Nc2cc(C)nc3ccc(OC)cc23)c(OC)c1	16.3	19.7
CSCCCNC(=S)N1CCN(c2ccc(C(C)=O)cc2)CC1	37.2	49.7
CC(=O)c1cccc(NC(=S)NC2CCCCCCC2)c1	27.3	> 100
Oc1ccccc1NCC(O)Cn1ccc2ccccc21 (configuration not stated)	11.5	12.3
CCOC(=O)c1csc(-c2snnc2C)n1	28.4	> 100
COc1ccc(-c2nc(CN3CCN(c4cc(C)nc(C)c4)CC3)c(C)o2)c2ccccc12	23.4	25.6
COc1ccccc1C1CCN(Cc2ccc3ccccc3c2)CC1	21.8	24.6
COc1cccc(CC2(CO)CCCN(Cc3[nH]c4ccc(C)cc4c3C)C2)c1 (configuration not stated)	40.8	55.8
c1ccc(/N=C2\N=C(Nc3ccccn3)c3ccccc32)nc1	2.05	3.02
COC(=O)c1ccc(-c2ncc(-c3cccc4ccccc34)o2)cc1	80.3	> 100
CCN(CC)C(=O)c1cc([N+](=O)[O-])cc2c1-c1ccc([N+](=O)[O-])cc1C2=C(C#N)C#N	21.7	24.3
CCOC(=O)c1cc(-c2ccccc2)nc2c1c(C)nn2-c1ccccn1	19.3	44.3
ClCc1nc2ccccc2c2ccccc12	20.6	28.4
O=C(NCCc1ccccc1)[C@@H]1CC=C[C@@H]2CCN(Cc3ccc(Cl)c(Cl)c3)C(=O)[C@@H]21	63.8	85.5
Cc1ccc(C2C3=C(CC(C)(C)CC3=O)N=C3c4ccccc4C(=O)C32)cc1 (configuration not stated)	63.6	87.5

SMILES	IC50 [µM]	IC90 [µM]
CSc1ccc(CNC(=O)c2ccc(NC(=O)C3=CSCCO3)cc2)cc1	7.07	25.5
O=C(Nc1nc2ccccc2[nH]1)C12CC3CC(CC(C3)C1)C2	13.5	> 100
Cc1ccc(OCCCCNC2CCCC(C)C2C)c(C)c1 (configuration not stated)	23.1	25.4
CCN(CC)S(=O)(=O)c1ccc(/C=C/C(=O)OCC#N)cc1	23.3	47.2
CN1CCN(C2Cc3ccccc3Sc3cc(C(F)(F)F)ccc32)CC1 (configuration not stated)	14	17.4
CC1CCN(C(=S)NC(=O)c2cccs2)CC1	23	26.3
CN1C(=S)SC(N(O)C(=O)Nc2ccc(Cl)c(Cl)c2)C1(C)C (configuration not stated)	23.4	26.6
Cc1ccc(O)c(C(=O)CC(=O)c2ccccc2Cl)c1	17.9	27.3
CC1(C)c2cc(Cl)ccc2-n2c1cc(O)c(-c1ccccc1)c2=O	8.61	18.1
Cc1cc(NC(=O)c2cc(-c3ccncc3)nc3c(C)cccc23)no1	93.1	> 100
CCCCS/C(N)=N/N=C/c1cc(C)ccc1O	22.7	34.1
O=c1oc2ccccc2c2c1nc(C(F)(F)F)n2-c1ccccc1	13.9	23.8
C=CCn1c(O)c(N=Nc2ccccc2O)c2ccccc21	16.4	22.4
CCOC(=O)c1ccc(N=C2C(=S)N(c3ccc(C(=O)OCC)cc3)C(=N)N2/N=C/c2ccccc2)cc1	99.7	> 100
CC(=O)c1ccc(Sc2nnnn2-c2ccccc2)c([N+](=O)[O-])c1	19.8	31.8
S=C(NN=C1CCN(Cc2ccccc2)CC1)NC1CCCCC1	43.6	47
CCc1ccc(N=Nc2ccc(O)c3[nH]cnc23)cc1	40.7	> 100
CCCCCn1c(=O)c2ccccc2n2c(CCl)nnc12	1.36	6.07
CNC(=S)/N=C/NOCc1c(Cl)cccc1Cl	2.96	3.35
CCOc1cc(/C=N/Nc2nc(Nc3ccccc3)nc(N3CCCCC3)n2)ccc1OCC(=O)O	20.5	27.6
NC(=O)c1cccn1-c1ncc(C(F)(F)F)cc1Cl	14.4	28.1
CCOC(=O)c1[nH]c(CN2CCN(c3ccc(OC)cc3)CC2)c(C(=O)OCC)c1C	34.1	48.6
CNc1nc(-c2ccccn2)nnc1-c1ccccc1	22.7	25.4

SMILES	IC50 [µM]	IC90 [µM]
O=C(Nc1cc(N2CCOCC2)ncn1)NC1(C(F)(F)F)Oc2ccc(Cl)cc2O1 (configuration not stated)	23.6	26.9
COc1cccc(C(=O)NC2CC3CCCC(C2)N3CC(=O)Nc2ccc(N(C)C)cc2)c1 (configuration not stated)	21.8	24.4
Cc1ccc(C(=O)CC(SCC(=O)O)c2ccc([N+](=O)[O-])cc2)cc1 (configuration not stated)	10.8	12.1
Cc1ccc(-n2cc(CN(C)Cc3nccn3C)c(-c3cccc(C)c3)n2)cc1	13.1	17.4
Cc1cccc(N2CCN(CCCNC(=O)c3ccc(NC(=O)C4=CSCCO4)cc3)CC2C)c1 (configuration not stated)	19.7	28.7
Cc1cc(/C=C2\SC(=Nc3ccc(F)cc3)NC2=O)c(C)n1-c1ccc(S(N)(=O)=O)cc1	22.7	26.2
O=C(Nc1ccc(Cl)cc1)N1CCN(c2ccc3nnc(-c4ccc(F)cc4)n3n2)CC1	18.9	51.8
CCOC(=O)/C(=N/Nc1ccc(OC)cc1)N1CCCc2ccccc21	95.3	> 100
Cc1nc(NCCc2ccccc2)c2oc3ccccc3c2n1	7.3	13.3
Cc1ccc(NC(=O)C2=C(O)CCn3c2nc2ccccc23)cc1	13.5	> 100
Cc1ccc(-c2ccnc(=S)[nH]2)cc1	55.9	> 100
COc1ccc(C2CC(=O)c3cnc(Nc4cc(C)cc(C)c4)nc3C2)cc1 (configuration not stated)	20.5	45.2
COC(=O)c1ccc(COC(=O)CCc2nc(-c3ccccc3)c(-c3ccccc3)o2)cc1	44.9	> 100
O=C(Nc1ccc(Oc2cccc(C(F)(F)F)c2)nc1)c1cccs1	85.3	> 100
O=c1[nH]c(=O)n(Cc2ccccc2)c2nc(-c3ccc(Oc4ccc(F)cc4)c([N+](=O)[O-])c3)n(CCO)c12	50.5	> 100
COc1cccc(N2CCN(c3ncnc4c3[nH]c3ccccc34)CC2C)c1 (configuration not stated)	27.1	42.5
O=C(NN=C1c2ccccc2-c2ccccc21)c1cccc(Br)c1	42.2	> 100
CCOCCN1CCN(c2c(CC)c(C)nc3cc(-c4cc(OC)cc(OC)c4)nn23)CC1	24.5	38.2
Nc1nc(CN2CCN(c3ccccc3F)CC2)nc(N2CCCc3ccccc32)n1	12	24.2
CC(C)(C)NC(=O)C(c1c[nH]c2ccccc12)N(C(=O)Cn1nnc(-c2ccc(F)cc2)n1)c1cccc(O)c1 (configuration not stated)	34.7	45.6
C/C(=N\Nc1ccc(Cl)c(Cl)c1)c1ccc(-n2ccnc2)cc1	87.2	95.6
O=C(/C=C/c1cc(Br)ccc1O)c1ccco1	15.7	20.4
CC(C)(C)c1ccc(Cn2c(=N)n(CC(O)c3ccco3)c3ccccc32)cc1 (configuration not stated)	23.3	25.6

SMILES	IC50 [µM]	IC90 [µM]
CCOC(=O)CSc1nc(N)c(C(=O)Nc2ccc(N(C)C)cc2)s1	4.23	9.77
CCOc1ccc(/C=N/OCC(=O)Nc2cc(C)on2)cc1	90	> 100
COc1cccc(/C=N/Nc2ncnc3scc(-c4ccccc4)c23)c1O	5.65	6.44
O=C(COc1ccccc1)NNc1nc2ccccc2s1	92.8	> 100
CC12CCC(=O)N1C(C(=O)Nc1ccc(SC(F)F)cc1)CS2 (configuration not stated)	47.8	> 100
Cc1nn(-c2ccccc2)c(N)c1C(c1ccc(C(C)C)cc1)c1c(C)nn(-c2ccccc2)c1N	22.9	25.8
CCN(CC(=O)NCc1cccs1)C(=O)c1ccc([N+](=O)[O-])o1	91.9	> 100
CCOc1ccc2nc(N/C(N)=N/C(=S)Nc3cccc(C)c3)nc(C)c2c1	36	> 100
COc1cc(NC(=O)C/C(C)=N/NC(=O)c2ccccn2)c(OC)cc1Cl	5.83	9.98
CCCOc1ccc(-c2cnc(SCC(N)=O)nc2N)cc1	42.3	> 100
Cn1cnnc1SCc1ccc(C(=O)N=Nc2c(O)n(Cc3ccc(Cl)cc3)c3ccccc23)cc1	3.04	3.38
COC(=O)Cn1nc(-c2ccccc2)c2cc(Cl)ccc21	22	> 100
COC(=O)CN1C(c2ccc(Cl)cc2)=Nc2ccc(Cl)cc2C1c1ccccc1 (configuration not stated)	23	24.8
Cc1ccc(-c2csc(N3CCN(CCCn4c(-c5ccncc5)nc5ccccc54)CC3)n2)cc1	29.7	48.3
O=C1C2C(c3ccccc3)(C(=O)N1c1ccc(Cl)cc1)C2(c1ccccc1)c1ccccc1 (configuration not stated)	11.6	13.6
O=C(NC1CCCCC1)C(c1cccs1)N(CCCN1CCOCC1)C(=O)c1ccc(-c2ccccc2)[nH]1 (configuration not stated)	51.3	86.4
CCn1nc(NC(=O)c2ccncc2)c2cc3cc(C)ccc3nc21	4.7	> 100
NNC(=S)NCc1ccc2c(c1)OCO2	99.3	> 100
Cc1c(OCc2ccccc2)c(=O)ccn1Cc1ccc(Cl)cc1	57.6	95.9
O=C(C[n+]1cc(-c2ccc(Cl)cc2)n2c1CCC2)Nc1nc(-c2ccccc2)cs1	23.4	26.7
